We go through 16 molecules from patent US20260015337A1 (Trawsfynydd Therapeutics, Inc., priority 2022, published 2026).

This assay has as its target 3CL Protease (Severe acute respiratory syndrome coronavirus 2, UniProt P0DTD1). The assay can be described thus: 3CL Protease enzymatic activity assay (BPS Bioscience Assay Kit #78043-1, fluorescence). Particulars: Table A; 30 min preincubation, 40 μM substrate, 4 hours at room temperature; read-out: IC50, nM (3CL Protease enzymatic activity). It is filed as biochemical, SARS-CoV-2. The procedure:
For determination of 3CL Protease enzymatic activity was used Assay Kit of BPS Bioscience, San Diego, CA (Catalog #78043-1).
All samples and controls should be tested in duplicate. • 1) Just before use, dilute 0.5 M DTT 500 times into the 3CL Protease Assay Buffer to obtain a DTT concentration of 1 mM. For example, add 10 μl of 0.5 M DTT to 5 ml of assay buffer. Prepare enough DTT-containing buffer as required for the assay. Store the remaining assay buffer at −20° C. • 2) Thaw the 3CL Protease on ice. Briefly spin the tube containing the enzyme to recover the full content of the tube. Note: 3CL Protease enzyme is sensitive to freeze/thaw cycles. […] Note: The exact concentration and volume of enzyme is lot-specific and will be indicated on the tube. Calculate required dilution from the information in the tube. It may be desirable to dilute the enzyme serially to avoid using large amounts of protease assay buffer for the dilution. • 4) Add 30 μl of diluted 3CL Protease to the wells designated as “Positive Control,” “Inhibitor Control,” and “Test Inhibitor.” Add 30 μl of Assay Buffer (containing 1 mM DTT) to the “Blank” wells. • 5) Dilute the 50 μg GC376 in 200 μl of Assay Buffer to obtain a 500 μM solution. Add 10 μl of GC376 (500 μM) to the wells labeled “Inhibitor Control”. Aliquot and store the remaining solution at −80° C. • 6) Prepare the Test Inhibitor. The final concentration of DMSO in the assay should not exceed 1%. If the Test Inhibitor is dissolved in DMSO, make a 100-fold higher concentration of the compound than the highest desired concentration. Then make a 20-fold dilution in 1× Assay Buffer (containing DTT). At this step the compound concentration is 5-fold higher than the final concentration. If the test inhibitor is dissolved in water, make a 5-fold higher concentration of the test compound than the final desired concentration in the Assay buffer (containing DTT). Add 10 μl of Test Inhibitor to each well designated “Test Inhibitor”. • 7) Diluent Solution (no inhibitor): add 10 μl of assay buffer (if the test compound is water soluble and was diluted in assay buffer) or 10 μl of 5% DMSO diluted in assay buffer (if DMSO was used to dissolve the test inhibitor) to “Blank” and “Positive Control” wells.
• 8) Preincubate for 30 min at room temperature with slow shaking. • 9) Dilute the 25 μl of 3CL Protease substrate (10 mM) in 1.25 ml of the Assay Buffer containing DTT, to make a […] solution. The final concentration of the 3CL Protease substrate in a 50 μl reaction is 40 μM. • 10) Start the reaction by adding 10 μl of the substrate solution to all the wells. Seal the plate with the plate sealer and incubate for 4 hours at room temperature with slow shaking. • 11) Measure the fluorescence intensity in a microtiter plate-reader fluorometer (Tecan Spark Cyto) capable of excitation at a wavelength 360 nm and detection of emission at a wavelength 460 nm. The fluorescence intensity can also be measured kinetically. The “Blank” value is subtracted from all other values. • The % inhibition was then used to calculate the IC50 values.

Some results are limits rather than exact numbers.

`CCOC(=O)N[C@@H](C(=O)N1CC2C(C1C(=O)N[C@@H](C#N)Cc1cc3cc(C)ccc3[nH]c1=O)C2(C)C)C(C)(C)C` (stereo in doubt) [Compound 201, Ethyl N-[(1R)-1-[(1S)-2-[[(1R)-1-cyano-2-(6-methyl-2-oxo-1H-quinolin-3-yl)ethyl]carbamoyl]-6,6-dimethyl-3-azabicyclo[3.1.0]hexane-3-carbonyl]-2,2-dimethyl-propyl]carbamate]: the IC50 was 50 to 100 nM.

`Cc1ccc2[nH]c(=O)c(C[C@H](C#N)NC(=O)C3C4C(CN3C(=O)[C@H](NC(=O)OC(C)C)C(C)(C)C)C4(C)C)cc2c1` (stereo in doubt) [Compound 202, Isopropyl N-[(1R)-1-[(1S)-2-[[(1R)-1-cyano-2-(6-methyl-2-oxo-1H-quinolin-3-yl)ethyl]carbamoyl]-6,6-dimethyl-3-azabicyclo[3.1.0]hexane-3-carbonyl]-2,2-dimethyl-propyl]carbamate]: the IC50 was 100 to 250 nM. Regarding `Cc1ccc2[nH]c(=O)c(C[C@H](C#N)NC(=O)C3C4C(CN3C(=O)[C@H](NS(=O)(=O)C3CC3)C(C)(C)C)C4(C)C)cc2c1` (stereo in doubt) [Compound 203, (1S)—N-[(1R)-1-Cyano-2-(6-methyl-2-oxo-1H-quinolin-3-yl)ethyl]-3-[(2R)-2-(cyclopropylsulfonylamino)-3,3-dimethyl-butanoyl]-6,6-dimethyl-3-azabicyclo[3.1.0]hexane-2-carboxamide], the IC50 was in the range of 50 to 100 nM. For the molecule `Cc1ccc2[nH]c(=O)c(C[C@H](C#N)NC(=O)C3C4C(CN3C(=O)[C@H](NC(=O)C(C)C)C(C)(C)C)C4(C)C)cc2c1` (stereo in doubt) [Compound 204, (1S)—N-[(1R)-1-cyano-2-(6-methyl-2-oxo-1H-quinolin-3-yl)ethyl]-3-[(2R)-3,3-dimethyl-2-(2-methylpropanoylamino)butanoyl]-6,6-dimethyl-3-azabicyclo[3.1.0]hexane-2-carboxamide], the 50% inhibitory concentration (IC50) lay in the range of 50 to 100 nM. Take `Cc1ccc2[nH]c(=O)c(C[C@@H](C#N)NC(=O)[C@@H]3[C@H]4[C@H](CN3C(=O)[C@@H](NC(=O)C(F)(F)F)C(C)(C)C)C4(C)C)cc2c1` [Compound 113, (1S,2S,5S)—N-[(1S)-1-cyano-2-(6-methyl-2-oxo-1H-quinolin-3-yl)ethyl]-3-[(2S)-3,3-dimethyl-2-[(2,2,2-trifluoroacetyl)amino]butanoyl]-6,6-dimethyl-3-azabicyclo[3.1.0]hexane-2-carboxamide]: the IC50 was below 50 nM. As for `Cc1ccc2[nH]c(=O)c(C[C@H](C#N)NC(=O)[C@@H]3[C@H]4[C@H](CN3C(=O)[C@@H](NC(=O)C(F)(F)F)C(C)(C)C)C4(C)C)cc2c1` [Compound 114, (1S,2S,5S)—N-[(1R)-1-cyano-2-(6-methyl-2-oxo-1H-quinolin-3-yl)ethyl]-3-[(2S)-3,3-dimethyl-2-[(2,2,2-trifluoroacetyl)amino]butanoyl]-6,6-dimethyl-3-azabicyclo[3.1.0]hexane-2-carboxamide], the IC50 was at least 1000 nM. For the molecule `Cc1ccc2c(c1)CC(C[C@@H](C#N)NC(=O)[C@@H]1[C@@H]3[C@H](CN1C(=O)[C@@H](NC(=O)C(F)(F)F)C(C)(C)C)C3(C)C)C(=O)N2` (stereo partly drawn) [Compound 120, (1R,2S,5S)—N-[(1S)-1-Cyano-2-(6-methyl-2-oxo-3,4-dihydro-1H-quinolin-3-yl)ethyl]-3-[(2S)-3,3-dimethyl-2-[(2,2,2-trifluoroacetyl)amino]butanoyl]-6,6-dimethyl-3-azabicyclo[3.1.0]hexane-2-carboxamide], the half-maximal inhibitory concentration (IC50) is below 50 nM.

`CC(C)(C)[C@H](NS(C)(=O)=O)C(=O)N1C[C@H]2[C@H]([C@H]1C(=O)NC(C#N)Cc1cc3cnccc3[nH]c1=O)C2(C)C` (stereo partly drawn) [Compound 130, (1S,2S,5S)-N-[1-cyano-2-(2-oxo-1H-1,6-naphthyridin-3-yl)ethyl]-3-[(2S)-2-(methanesulfonamido)-3,3-dimethyl-butanoyl]-6,6-dimethyl-3-azabicyclo[3.1.0]hexane-2-carboxamide]: the half-inhibitory concentration (IC50) is below 50 nM. For the molecule `Cc1ccc2[nH]c(=O)c(CC(C#N)NC(=O)[C@@H]3[C@H]4[C@H](CN3C(=O)[C@@H](Nc3ccnc(C)n3)C(C)(C)C)C4(C)C)cc2c1` (stereo partly shown) [Compound 153, 3-[3,3-Dimethyl-2-(2-methyl-pyrimidin-4-ylamino)-butyryl]-6,6-dimethyl-3-aza-bicyclo[3.1.0]hexane-2-carboxylic acid [1-cyano-2-(6-methyl-2-oxo-1,2-dihydro-quinolin-3-yl)-ethyl]-amide], the IC50 was at least 1000 nM. For `Cc1ccc2[nH]c(=O)c(CC(C#N)NC(=O)[C@H](Cc3ccccc3)NC(=O)[C@@H](NS(=O)(=O)CC(F)(F)F)C(C)(C)C)cc2c1` (stereo partly drawn) [Compound 164, (2S)—N-((2S)-1-((1-Cyano-2-(6-methyl-2-oxo-1,2-dihydroquinolin-3-yl)ethyl)amino)-1-oxo-3-phenylpropan-2-yl)-3,3-dimethyl-2-((2,2,2-trifluoroethyl)sulfonamido)butanamide], the IC50 is 100 to 250 nM. As for `Cc1ccc2[nH]c(=O)c(CC(C#N)NC(=O)[C@H](Cc3cc(F)c(F)cc3F)NC(=O)[C@@H](NS(=O)(=O)CC(F)(F)F)C(C)(C)C)cc2c1` (stereo partly drawn) [Compound 166, (2S)—N-((2S)-1-((1-Cyano-2-(6-methyl-2-oxo-1,2-dihydroquinolin-3-yl)ethyl)amino)-1-oxo-3-(2,4,5-trifluorophenyl)propan-2-yl)-3,3-dimethyl-2-((2,2,2-trifluoroethyl)sulfonamido)butanamide], the figure is 500 to 1000 nM; as for `CC(C)(C)[C@H](NC(=O)C(F)(F)F)C(=O)N1C[C@H]2[C@@H]([C@H]1C(=O)N[C@@H](C#N)Cc1cc3cnccc3[nH]c1=O)C2(C)C` [Compound 173, (1R,2S,5S)—N—((R)-1-Cyano-2-(2-oxo-1,2-dihydro-1,6-naphthyridin-3-yl)ethyl)-3-((S)-3,3-dimethyl-2-(2,2,2-trifluoroacetamido)butanoyl)-6,6-dimethyl-3-azabicyclo[3.1.0]hexane-2-carboxamide], at least 1000 nM; as for `CC(C)(C)[C@H](NC(=O)C(F)(F)F)C(=O)N1C[C@H]2[C@@H]([C@H]1C(=O)N[C@H](C#N)Cc1cc3cnccc3[nH]c1=O)C2(C)C` [Compound 174, (1R,2S,5S)—N—((S)-1-Cyano-2-(2-oxo-1,2-dihydro-1,6-naphthyridin-3-yl)ethyl)-3-((S)-3,3-dimethyl-2-(2,2,2-trifluoroacetamido)butanoyl)-6,6-dimethyl-3-azabicyclo[3.1.0]hexane-2-carboxamide], below 50 nM.

With `COc1cc2[nH]c(=O)c(C[C@@H](C#N)NC(=O)[C@@H]3[C@@H]4[C@H](CN3C(=O)[C@@H](NC(=O)C(F)(F)F)C(C)(C)C)C4(C)C)cc2cc1C` [Compound 175, (1R,2S,5S)—N-[(1S)-1-Cyano-2-(7-methoxy-6-methyl-2-oxo-1H-quinolin-3-yl)ethyl]-3-[(2S)-3,3-dimethyl-2-[(2,2,2-trifluoroacetyl)amino]butanoyl]-6,6-dimethyl-3-azabicyclo[3.1.0]hexane-2-carboxamide], the IC50 fell in the range of 50 to 100 nM. As to `Cc1cc2cc(C[C@@H](C#N)NC(=O)[C@@H]3[C@@H]4[C@H](CN3C(=O)[C@@H](NC(=O)C(F)(F)F)C(C)(C)C)C4(C)C)c(=O)[nH]c2cc1F` [Compound 176, (1R,2S,5S)—N—((S)-1-Cyano-2-(7-fluoro-6-methyl-2-oxo-1,2-dihydroquinolin-3-yl)ethyl)-3-((S)-3,3-dimethyl-2-(2,2,2-trifluoroacetamido)butanoyl)-6,6-dimethyl-3-azabicyclo[3.1.0]hexane-2-carboxamide], the IC50 lay in the range of 50 to 100 nM. As to `CC(C)(C)[C@H](NC(=O)C(F)(F)F)C(=O)N1C[C@H]2[C@@H]([C@H]1C(=O)N[C@H](C#N)Cc1cc3cc(F)c(F)cc3[nH]c1=O)C2(C)C` [Compound 177, (1R,2S,5S)—N—((S)-1-Cyano-2-(6,7-difluoro-2-oxo-1,2-dihydroquinolin-3-yl)ethyl)-3-((S)-3,3-dimethyl-2-(2,2,2-trifluoroacetamido)butanoyl)-6,6-dimethyl-3-azabicyclo[3.1.0]hexane-2-carboxamide], the 50% inhibitory concentration (IC50) was 50 to 100 nM.
